{"source": "patent US9302999B2", "about": "“Substituted triazoles as herbicides” (E. I. DU PONT DE NEMOURS AND COMPANY, priority 2012, dated 2016)", "type_in_all_cases": "in vivo", "key": {"[1]": {"system": "bromegrass, downy (downy bromegrass, Bromus tectorum)", "test": "Test D pre-/postemergence: bromegrass, downy", "outline": "(§1)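 We sprayed chemicals in a surfactant-containing solvent onto silt loam at planting (preemergence) and onto 1- to 4-leaf seedlings (postemergence). Fourteen to 21 days later, each species was rated visually from 0 to 100 relative to controls.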"}, "kochia (Kochia scoparia) [2]": {"system": "kochia (Kochia scoparia)", "test": "Test D pre-/postemergence: kochia", "outline": "as §1"}, "[3]": {"system": "wheat, winter (winter wheat, Triticum aestivum)", "test": "Test D pre-/postemergence: wheat, winter", "outline": "as §1"}, "[4]": {"system": "poinsettia, wild (wild poinsettia, Euphorbia heterophylla)", "test": "Test F pre-/postemergence: poinsettia, wild", "excerpt": "(§2) Seeds of plant species selected from corn (Zea mays), soybean (Glycine max), velvetleaf (Abutilon theophrasti), lambsquarters (Chenopodium album), poinsettia, wild (wild poinsettia, Euphorbia heterophylla), pigweed, palmer (palmer pigweed, Amaranthus palmeri), waterhemp (common waterhemp, Amaranthus rudis), surinam grass (Brachiaria decumbens), crabgrass, Brazil (Brazilian crabgrass, Digitaria horizontalis), panicum, fall (fall panicum Panicum dichotomiflorum), crabgrass, large (large crabgrass, Digitaria sanguinalis), foxtail, giant (giant foxtail, Setaria faberii), foxtail, green (green foxtail Setaria viridis), goosegrass (Eleusine indica), ragweed (common ragweed, Ambrosia elatior), barnyardgrass (Echinochloa crus-galli), sandbur (southern sandbur, Cenchrus echinatus), arrowleaf sida (Sida rhombifolia), ryegrass, Italian (Italian ryegrass, Lolium multiflorum), dayflower, VA (Virginia (VA) dayflower, Commelina virginica), field bindweed (Convolvulus arvensis), cocklebur (common cocklebur, Xanthium strumarium), morningglory (Ipomoea coccinea), nightshade (eastern black nightshade, Solanum ptycanthum), kochia (Kochia scoparia), nutsedge, yellow (yellow nutsedge, Cyperus esculentus), johnsongrass (Sorghum halepense), smartweed (ladysthumb smartweed, Polygonum persicaria), and beggarticks (hairy beggarticks, Bidens pilosa), were planted into a silt loam soil and treated preemergence with test chemicals formulated in a non-phytotoxic solvent mixture which included a surfactant. At the same time, plants selected from these crop and weed species and also pigweed (Amaranthus retroflexus), waterhemp_RES1 (ALS/Triazine resistant common waterhemp, Amaranthus rudis) and waterhemp_RES2 (ALS/HPPD resistant common waterhemp, Amaranthus rudis) were planted in pots containing a planting medium comprising spaghnum peat moss, vermiculite, wetting agent and starter nutrients treated with postemergence applications of some of the test chemicals formulated in the same manner. Plants ranged in height from 2 to 18 cm for postemergence treatments (1- to 4-leaf stage).\n(§3) Treated plants and controls were maintained in a greenhouse for 14 to 21 days, after which time all species were compared to controls and visually evaluated. Plant response ratings, summarized in Table E, are based on a scale of 0 to 100 where 0 is no effect and 100 is complete control. A dash (-) response means no test result."}, "[5]": {"system": "ragweed (common ragweed, Ambrosia elatior)", "test": "Test F pre-/postemergence: ragweed", "conditions": "Preemergence", "excerpt": "as §2, §3"}, "kochia (Kochia scoparia) [6]": {"system": "kochia (Kochia scoparia)", "test": "Test F pre-/postemergence: kochia", "conditions": "Preemergence", "excerpt": "as §2, §3"}, "[7]": {"system": "morningglory (Ipomoea coccinea)", "test": "Test F pre-/postemergence: morningglory", "conditions": "Preemergence", "excerpt": "as §2, §3"}, "[8]": {"conditions": "Postemergence, 31 g ai/ha, scale 0 to 100 (0 no effect, 100 complete control)"}, "[9]": {"conditions": "Postemergence, 62 g ai/ha, scale 0 to 100 (0 no effect, 100 complete control)"}, "[10]": {"conditions": "Postemergence, 125 g ai/ha, scale 0 to 100, 0 no effect, 100 complete control"}, "[11]": {"conditions": "Postemergence, 16 g ai/ha, scale 0 to 100"}, "[12]": {"conditions": "Preemergence, 16 g ai/ha, scale 0 to 100, 0 no effect, 100 complete control"}, "[13]": {"conditions": "Preemergence, 31 g ai/ha, scale 0 to 100, 0 no effect, 100 complete control"}, "[14]": {"conditions": "Preemergence, 62 g ai/ha, scale 0 to 100"}, "[15]": {"conditions": "Preemergence, 125 g ai/ha, scale 0 to 100"}, "[16]": {"conditions": "Preemergence, 250 g ai/ha, scale 0 to 100"}, "[17]": {"conditions": "Postemergence, 250 g ai/ha, scale 0 to 100"}, "[18]": {"conditions": "Postemergence, 31 g ai/ha, scale 0 to 100"}, "[19]": {"conditions": "Postemergence, 125 g ai/ha, scale 0 to 100"}, "[20]": {"conditions": "16 g ai/ha, scale 0 to 100, 0 no effect, 100 complete control"}, "[21]": {"conditions": "31 g ai/ha, scale 0 to 100, 0 no effect, 100 complete control"}}}
{"smiles": "CCc1nn(-c2ccc(C(F)(F)F)cc2)nc1Cc1ccnc(C(F)(F)F)c1", "note": "[Compound 155]", "values": [{"measurement": "Plant response rating: Bromegrass, Downy", "setting": "[1]; [8]", "value": 15}, {"measurement": "Plant response rating: Bromegrass, Downy", "setting": "[1]; [9]", "value": 35}, {"measurement": "Plant response rating: Bromegrass, Downy", "setting": "[1]; [10]", "value": 55}, {"measurement": "Plant response rating, Bromegrass, Downy", "setting": "[1]; [11]", "value": 5}, {"measurement": "Plant response rating, Bromegrass, Downy", "setting": "[1]; [12]", "value": 0}, {"measurement": "Plant response rating, Bromegrass, Downy", "setting": "[1]; [13]", "value": 5}, {"measurement": "Plant response rating, Bromegrass, Downy", "setting": "[1]; [14]", "value": 10}, {"measurement": "Plant response rating, Bromegrass, Downy", "setting": "[1]; [15]", "value": 35}, {"measurement": "Plant response rating: Kochia", "setting": "kochia (Kochia scoparia) [2]; [8]", "value": 80}, {"measurement": "Plant response rating: Kochia", "setting": "kochia (Kochia scoparia) [2]; [9]", "value": 85}, {"measurement": "Plant response rating: Kochia", "setting": "kochia (Kochia scoparia) [2]; [10]", "value": 85}, {"measurement": "Plant response rating, Kochia", "setting": "kochia (Kochia scoparia) [2]; [11]", "value": 70}, {"measurement": "Plant response rating, Kochia", "setting": "kochia (Kochia scoparia) [2]; [12]", "value": 30}, {"measurement": "Plant response rating, Kochia", "setting": "kochia (Kochia scoparia) [2]; [13]", "value": 60}, {"measurement": "Plant response rating, Kochia", "setting": "kochia (Kochia scoparia) [2]; [14]", "value": 65}, {"measurement": "Plant response rating, Kochia", "setting": "kochia (Kochia scoparia) [2]; [15]", "value": 75}, {"measurement": "Plant response rating: Wheat, Winter", "setting": "[3]; [8]", "value": 10}, {"measurement": "Plant response rating: Wheat, Winter", "setting": "[3]; [9]", "value": 15}, {"measurement": "Plant response rating: Wheat, Winter", "setting": "[3]; [10]", "value": 25}, {"measurement": "Plant response rating, Wheat, Winter", "setting": "[3]; [11]", "value": 5}, {"measurement": "Plant response rating, Wheat, Winter", "setting": "[3]; [12]", "value": 0}, {"measurement": "Plant response rating, Wheat, Winter", "setting": "[3]; [13]", "value": 0}, {"measurement": "Plant response rating, Wheat, Winter", "setting": "[3]; [14]", "value": 5}, {"measurement": "Plant response rating, Wheat, Winter", "setting": "[3]; [15]", "value": 5}, {"measurement": "Plant response rating, Poinsettia, Wild", "setting": "[4]; [15]", "value": 80}, {"measurement": "Plant response rating, Poinsettia, Wild", "setting": "[4]; [16]", "value": 100}, {"measurement": "Plant response rating, Ragweed", "setting": "[5]; 125 g ai/ha, scale 0 to 100", "value": 50}, {"measurement": "Plant response rating, Ragweed", "setting": "[5]; 250 g ai/ha, scale 0 to 100", "value": 80}, {"measurement": "Plant response rating, Kochia", "setting": "kochia (Kochia scoparia) [6]; 62 g ai/ha, scale 0 to 100", "value": 70}, {"measurement": "Plant response rating, Kochia", "setting": "kochia (Kochia scoparia) [6]; 125 g ai/ha, scale 0 to 100", "value": 98}, {"measurement": "Plant response rating, Kochia", "setting": "kochia (Kochia scoparia) [6]; 250 g ai/ha, scale 0 to 100", "value": 100}]}
{"smiles": "CCc1nn(-c2ccc(C(F)(F)F)cc2)nc1Oc1ccnc(C(F)(F)F)c1", "note": "[Compound 169]", "values": [{"measurement": "Plant response rating, Poinsettia, Wild", "setting": "[4]; [17]", "value": 85}, {"measurement": "Plant response rating, Poinsettia, Wild", "setting": "[4]; [11]", "value": 50}, {"measurement": "Plant response rating, Poinsettia, Wild", "setting": "[4]; [18]", "value": 60}, {"measurement": "Plant response rating, Poinsettia, Wild", "setting": "[4]; Postemergence, 62 g ai/ha, scale 0 to 100", "value": 60}, {"measurement": "Plant response rating, Poinsettia, Wild", "setting": "[4]; [19]", "value": 70}, {"measurement": "Plant response rating, Poinsettia, Wild", "setting": "[4]; [12]", "value": 0}, {"measurement": "Plant response rating, Poinsettia, Wild", "setting": "[4]; [13]", "value": 0}, {"measurement": "Plant response rating, Poinsettia, Wild", "setting": "[4]; [15]", "value": 40}, {"measurement": "Plant response rating, Poinsettia, Wild", "setting": "[4]; [16]", "value": 98}, {"measurement": "Plant response rating, Ragweed", "setting": "[5]; [20]", "value": 0}, {"measurement": "Plant response rating, Ragweed", "setting": "[5]; [21]", "value": 0}, {"measurement": "Plant response rating, Ragweed", "setting": "[5]; 125 g ai/ha, scale 0 to 100", "value": 60}, {"measurement": "Plant response rating, Ragweed", "setting": "[5]; 250 g ai/ha, scale 0 to 100", "value": 100}, {"measurement": "Plant response rating, Morningglory", "setting": "[7]; [20]", "value": 0}, {"measurement": "Plant response rating, Morningglory", "setting": "[7]; [21]", "value": 0}, {"measurement": "Plant response rating, Morningglory", "setting": "[7]; 125 g ai/ha, scale 0 to 100", "value": 40}, {"measurement": "Plant response rating, Morningglory", "setting": "[7]; 250 g ai/ha, scale 0 to 100", "value": 40}, {"measurement": "Plant response rating, Kochia", "setting": "kochia (Kochia scoparia) [6]; [20]", "value": 0}, {"measurement": "Plant response rating, Kochia", "setting": "kochia (Kochia scoparia) [6]; [21]", "value": 95}, {"measurement": "Plant response rating, Kochia", "setting": "kochia (Kochia scoparia) [6]; 62 g ai/ha, scale 0 to 100", "value": 95}, {"measurement": "Plant response rating, Kochia", "setting": "kochia (Kochia scoparia) [6]; 125 g ai/ha, scale 0 to 100", "value": 98}, {"measurement": "Plant response rating, Kochia", "setting": "kochia (Kochia scoparia) [6]; 250 g ai/ha, scale 0 to 100", "value": 98}]}
{"smiles": "CCCc1nn(-c2ccc(F)c(F)c2)nc1Oc1ccnc(C(F)(F)F)c1", "note": "[Compound 172]", "values": [{"measurement": "Plant response rating, Poinsettia, Wild", "setting": "[4]; [17]", "value": 100}, {"measurement": "Plant response rating, Poinsettia, Wild", "setting": "[4]; [18]", "value": 80}, {"measurement": "Plant response rating, Poinsettia, Wild", "setting": "[4]; [19]", "value": 100}, {"measurement": "Plant response rating, Poinsettia, Wild", "setting": "[4]; [13]", "value": 20}, {"measurement": "Plant response rating, Poinsettia, Wild", "setting": "[4]; [15]", "value": 50}, {"measurement": "Plant response rating, Poinsettia, Wild", "setting": "[4]; [16]", "value": 98}, {"measurement": "Plant response rating, Morningglory", "setting": "[7]; [21]", "value": 0}, {"measurement": "Plant response rating, Morningglory", "setting": "[7]; 125 g ai/ha, scale 0 to 100", "value": 5}, {"measurement": "Plant response rating, Morningglory", "setting": "[7]; 250 g ai/ha, scale 0 to 100", "value": 5}, {"measurement": "Plant response rating, Kochia", "setting": "kochia (Kochia scoparia) [6]; [21]", "value": 20}, {"measurement": "Plant response rating, Kochia", "setting": "kochia (Kochia scoparia) [6]; 125 g ai/ha, scale 0 to 100", "value": 100}, {"measurement": "Plant response rating, Kochia", "setting": "kochia (Kochia scoparia) [6]; 250 g ai/ha, scale 0 to 100", "value": 100}]}
